Key:
[1] = tested on: UV irradiation-induced skin oedema; assay: Murine model of UV irradiation-induced skin oedema; format: in vivo, mice (Skh:hr-1 albino); settings: for Increase in skin thickness (mean ± SD, ×0.01 mm): topical 0.2 ml of 20 μM at 30 min, 2 h, 4 h
Description: Groups of 4-5 female Skh:hr-1 albino mice were irradiated with 1×3 MEdD (minimal edematous dose) of solar simulated UV radiation (SSUV). Solar-simulated ultraviolet radiation (SSUV) was provided by a planar bank of 6 UVA tube (Hitachi 40 W F40 T 10/BL, black light) and one UVB tube (Philips TL 40 W/12 RS) with radiation filtered through a sheet of 0.125 mm cellulose acetate (Eastman Chemical Products, Kingport, Term, USA) to give 2.96×10-4 W/cm2 UVA and 1.59×10-5 W/cm2 UVB. During irradiation, the cages were rotated below the lights to reduce the variation in radiation intensity in different positions.
Either test compound (0.2 ml of a 20 μM solution) or vehicle (propylene glycol/ethanol/water 1:2:1) was applied to the irradiated dorsal skin at 30 min, 2 h and 4 h post-irradiation. Dorsal skin fold measurements were made with a spring micrometer prior to and at 24 hr and 48 h post-UV exposure. The difference in skin thickness pre- and post-exposure to UVR was calculated for each mouse, and the differences examined between test compound and vehicle control were analysed using an unpaired two-tailed t test.

[2] = tested on: inflammed rat air pouches (serum-treated zymozan); assay: Rat air pouch assay; format: in vivo, rats (Dark Agouti); settings: At 1 mM application
[3] = tested on: inflammed rat air pouches (serum-treated zymozan); assay: Rat air pouch assay; format: in vivo, rats (Dark Agouti); settings: 0.5 ml of 100 μM into pouch; for Leucocytes in lavage fluid (×10^−7): lavage at 4 h
Protocol: An alternative assay used to measure anti-inflammatory efficacy is the air pouch model which involves the repeated subcutaneous injection of air into the dorsum of rats followed 24 h later by the intrapouch injection of an inflammatory stimulus (Gilroy et al. 1998).
Air pouches were raised on the dorsum of female Dark Agouti rats, approximately 7 weeks of age. To promote the formation of a cellular membrane lining the inside of each pouch, the pouches were maintained by re-inflating on days 2 and 5 after the initial injection of air. On re-inflation, the pouch was first deflated to ensure the needle was positioned correctly, before being re-inflated with 2 mL of sterile air. Using this protocol, the pouches remained inflated until use on day 7, when they were injected with 0.5 ml of either test compound at 100 μM or vehicle control. After 15 min, air pouches were injected with serum-treated zymozan (STZ-500 μg). Lavage of the air pouch (4×2 ml lavages) was performed at 4 h and leucocytes counted, after which the rats were killed, the air pouch excised and processed in formalin for histology. The sections were blinded to the person counting. Using a graticule with 100 squares and the 40× objective, the number of polymorphs were counted in the pouch lining at 10 different and non-adjacent sites. Group sizes were 5-6 rats. Data were analysed for statistical significance within each experiment and using an unpaired t test.

DSS-induced colitis = assay: Murine model of DSS-induced colitis; format: in vivo, mice (BALB/c); settings: for ulceration of the posterior colon (mice affected): vehicle 3/8; for mean clinical score versus vehicle: Experiment 3, 11 (p=0.0252); for colonic inflammation, in words: series of experiments, 1.0-1.25 mg/kg single oral dose per day
Protocol: Female BALB/c mice, 6-7 weeks old, were housed for a minimum of one week before any experimental work began. To induce colitis, dextran sulphate sodium (DSS—molecular weight 40 kD, TdB Consultancy AB, Uppsala, Sweden (Dieleman et al. 1994), was administered fresh daily in the drinking water at a concentration of 4.5-5% for 5 days (Okayasu et al. 1990), after which water alone was given. This regime induced mild colitis, evidenced by diarrhea and rectal bleeding, the severity of which was scored, as well as a reduction in the length of the colon. Histologically, colonic inflammation was evidenced by ulceration and an infiltration of neutrophils into the mucosa, which was also scored. The systemic effect of the colitis causes weight loss, which was also monitored.
Either vehicle (PEG 400:PBS1:1) Compounds 1 or 4 were administered at a dose rate of 1 mg/kg throughout the experiment until the mice were killed at day 17.
Either Compounds 1 and 2, at a dose of 1 mg/kg or vehicle were administered for 10 days prior to DSS being added to the drinking water to induce colitis, after which test compound was stopped. DSS was administered for 5 days and the mice killed 8 days later (day 23).
Either the cis or the trans isomers of Compound 3 (Compound 3a and 3b respectively) at 1.25 mg/kg or vehicle were administered throughout the experiment until the mice were killed at day 17.

[4] = tested on: NO synthesis in mouse macrophage cell line RAW 264.7; assay: Inhibition of nitric oxide synthesis (Griess reaction); format: cell-based; settings: 10 μM
Protocol: Exposure of various cells (e.g. macrophages and smooth muscle cells) to bacterial LPS and proinflammatory cytokines induces iNOS which generates NO. NO production can be indirectly quantified by measurement of nitrite (NO2—), a stable breakdown product of NO. The mouse macrophage cell line RAW 264.7 was cultured in DMEM supplemented with FCS, 2 mM glutamine and 50 U/ml penicillin/streptomycin. Cells were treated with either test compound at 10 μM (in 0.125% DMSO) or vehicle alone, together with 10 ng/ml LPS. After incubation for 24 hrs, culture media was collected and analysed immediately for NO concentration using the Griess reaction (Eigler et al. 1995).

[5] = tested on: AA-induced ear inflammation; assay: Murine ear inflammation induced by arachidonic acid; format: in vivo, mice (BALB/c); settings: for Increase in ear thickness (mean ± SD, ×0.01 mm): 25 mg/kg i/p, 1 hr post-AA application; for AA-induced ear inflammation / ear thickness compared with vehicle, in words: mouse, in vivo
Description: Compounds were examined for their ability to inhibit ear swelling in mice induced by the topical application of arachidonic acid (AA). The inflammatory response due AA, the immediate precursor of the eicosanoids, is due to formation of AA metabolites via both the cyclooxygenase (COX) and lipoxygenase (LOX) pathways (Young et al. 1984). AA induces an increase in both PGE2 and LTC4 synthesis which precedes the increase in ear thickness (Opas et al. 1985; Chang et al. 1986).
Female BALB/c mice (ARC, WA, Australia), weighing 15-21 g were injected with Compound 2 delivered in polyethylene glycol (PEG) 400:phosphate buffered saline (PBS) 1:1 intraperitoneally (i/p) at a dose of 25 mg/kg either 30 min prior to or immediately before the application of AA to the ears. Mice were anaesthetized using isoflurane and baseline thickness of both ears was measured using a spring micrometer. Each mouse received a total of 20 μL of AA in ethanol (50 mg/ml) applied to the inner and outer surfaces of each pinna (i.e. 0.5 mg AA per ear). Mice were anaesthetized again to remeasure the ears at 1 hr post-AA application.
The difference in ear swelling pre- and post-application of AA for each ear was calculated, and the average for the two ears of each mouse calculated. The difference in mean swelling of each test group compared to the group given vehicle alone was calculated using a two-tailed unpaired t test (Prism 4, GraphPad Software).

TX synthase (TXS) = target: T1, TX synthase (TXS) (Homo sapiens, UniProt P24557); assay: TXB2 synthesis following addition of exogenous PGH2 to U937 cells; format: cell-based; settings: 1, 10, 100 μM, undifferentiated U937 cells, PGH2 5 μM
T1 construct: endogenous in cells; host or cells: undifferentiated U937 cells
T1 sequence (P24557 1-533): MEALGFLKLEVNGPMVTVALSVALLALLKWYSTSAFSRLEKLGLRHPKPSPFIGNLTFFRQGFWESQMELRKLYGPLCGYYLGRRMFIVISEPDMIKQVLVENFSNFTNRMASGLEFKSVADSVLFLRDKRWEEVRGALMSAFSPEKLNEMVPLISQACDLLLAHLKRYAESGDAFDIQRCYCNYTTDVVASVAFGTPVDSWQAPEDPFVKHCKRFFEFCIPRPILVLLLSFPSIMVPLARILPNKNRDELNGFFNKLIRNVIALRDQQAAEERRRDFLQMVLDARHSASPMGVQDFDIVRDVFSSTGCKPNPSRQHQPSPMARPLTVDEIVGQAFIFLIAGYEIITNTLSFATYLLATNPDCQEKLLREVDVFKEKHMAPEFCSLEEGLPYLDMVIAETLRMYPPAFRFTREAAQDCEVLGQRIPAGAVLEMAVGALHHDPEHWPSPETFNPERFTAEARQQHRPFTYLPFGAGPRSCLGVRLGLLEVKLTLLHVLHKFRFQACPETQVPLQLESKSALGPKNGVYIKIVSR
Protocol: To examine effects of test compounds directly on TX synthase (TXS), a different assay system was used. Whereas arachidonic acid (AA) is the substrate for COX, PGH2 is the substrate for TX synthase. To examine directly the effect of these compounds on TXS, exogenous ? elow:
Test compounds at 0 μM, 1 μM, 10 μM and 100 μM (in DMSO) were incubated with undifferentiated U937 cells (6×10^6/ml) for 30 min at 37° C., after which PGH2 (5 μM) was added. After incubation for 10 min, the reaction was terminated by centrifugation and the supernatants were collected and TXB2 production was measured in triplicate by RIA. ANOVA followed by Newman-Keuls multiple comparisons test was used to examine differences between doses and the control values. A statistical significance level of 0.05 was used and differences from control values are indicated by an asterisk (*).

NFκB promoter activity = assay: Inhibition of NFκB promoter activity (β-lactamase reporter) in TNFα-stimulated THP-1 cells; format: cell-based, human; settings: 5 h
Protocol: Human macrophage THP-1 cells, modified to include the β-lactamase reporter gene, were seeded into wells of a 96-well plate (50×10^3 cells/well) in the presence of RPMI 1640 medium (70 μl). TNFα (7.5 ng/ml) and human sera (final concentration of 20%) were added to each well. Plates were incubated for 5 h at 37° C. to allow for NFkB-stimulated β-lactamase production. LiveBLAzer™ FRET B/G Substrate (CCF4-AM) was then added to assay for β-lactamase activity. Once CCFA-AM enters a cell, it is converted to negatively charged CCF4 by endogenous esterases. Excitation of this substrate at 409 nm leads to efficient FRET between the coumarin and fluorescein moieties, resulting in a green fluorescence detectable at 530 nm. The presence of β-lactamase leads to cleavage of CCF4 and results in a loss of FRET, resulting in a robust blue fluorescent signal detectable at 460 nm. Thus, activity of beta-lactamase (a marker of NFkB-promoter activity) is measured as a product to substrate ratio (blue/green fluorescence ratio: 460 nm/530 nm).

Compound	Increase in skin thickness (mean ± SD, ×0.01 mm) ([1]; 24 hrs post-irradiation) [×0.01 mm]	Increase in skin thickness (mean ± SD, ×0.01 mm) ([1]; 48 hrs post-irradiation) [×0.01 mm]	UV-induced inflammation / skin oedema, in words ([1]; both time points (24 and 48 hrs), topical)	number of polymorphs in the tissue sections, in words [2]	Polymorphs in tissue sections (per 100 squares) ([3]; 4 h)	Leucocytes in lavage fluid (×10^−7) [3]	colon length versus vehicle (DSS-induced colitis; Experiment 3, 1.25 mg/kg)	day of switch from mean body weight loss to mean body weight gain (DSS-induced colitis; Experiment 3, 1.25 mg/kg) [days]	degree of mucosal damage versus vehicle (DSS-induced colitis; Experiment 3, 1.25 mg/kg)	colonic inflammation and its resolution, in words (DSS-induced colitis; Experiment 3, 1.25 mg/kg throughout until day 17)	ulceration of the posterior colon (mice affected) (DSS-induced colitis; Experiment 3, 1.25 mg/kg)	maximum mean weight loss (DSS-induced colitis; Experiment 3, 1.25 mg/kg, vehicle nearly 5%)	mean clinical score versus vehicle (DSS-induced colitis; days 8 (p=0.0078), 9 (p=0.0326), 10 (p=0.0386), 15 (p=0.0033), 16 (p=0.0016))	colonic inflammation, in words (DSS-induced colitis)	NO synthesis, direction of effect in words [4]	Increase in ear thickness (mean ± SD, ×0.01 mm) [5] [×0.01 mm]	AA-induced ear inflammation / ear thickness compared with vehicle, in words [5]	mean clinical score versus vehicle (DSS-induced colitis; days 8 (p=0.0055), 9 (p=0.0057), 17 (p=0.0177))	thromboxane synthase inhibition (TXB2 synthesis after exogenous PGH2), selectivity in words (TX synthase (TXS))	inhibition of NFκB compared to vehicle control (NFκB promoter activity)
Cc1c(O)ccc2c1OCC(c1ccc(O)cc1)C2O (single isomer, unassigned) [Compound 3a]	32 ± 18	69 ± 24	significantly inhibited skin oedema	suppressed the number of polymorphs	17.9 ± 14.2	0.47 ± 0.4 ×10^−7	significantly longer (p=0.039)	4	significantly lower (p=0.018)	reduced colonic inflammation and hastened its resolution	not observed	less than 2%	significantly lower	reduced colonic inflammation	inhibited NO synthesis	6.7 ± 2.1	significant reduction in ear thickness			
Cc1c(O)ccc2c1OCC(c1ccc(O)cc1)C2O (single isomer, unassigned) [Compound 3b]	56 ± 14	113 ± 25				0.66 ± 0.23 ×10^−7					1/8			reduced colonic inflammation	inhibited NO synthesis	7.1 ± 3.0	significant reduction in ear thickness	significantly lower		
Cc1cc(O)cc2c1C(=O)C(c1ccc(O)cc1)CO2 (stereo not shown) [Compound 5]																			selective thromboxane synthase inhibitors	significantly (p<0.001) inhibited
